{"source": "paper PMC5701173", "about": "“An activity-dependent proximity ligation platform for spatially resolved quantification of active enzymes in single cells” (Nature Communications, 2017)", "target": "T1, Neutral cholesterol ester hydrolase 1 (NCEH1) (Homo sapiens, UniProt Q6PIU2)", "T1 construct": "endogenous full-length enzyme in live PC3 cells", "T1 sequence (Q6PIU2 1-408)": "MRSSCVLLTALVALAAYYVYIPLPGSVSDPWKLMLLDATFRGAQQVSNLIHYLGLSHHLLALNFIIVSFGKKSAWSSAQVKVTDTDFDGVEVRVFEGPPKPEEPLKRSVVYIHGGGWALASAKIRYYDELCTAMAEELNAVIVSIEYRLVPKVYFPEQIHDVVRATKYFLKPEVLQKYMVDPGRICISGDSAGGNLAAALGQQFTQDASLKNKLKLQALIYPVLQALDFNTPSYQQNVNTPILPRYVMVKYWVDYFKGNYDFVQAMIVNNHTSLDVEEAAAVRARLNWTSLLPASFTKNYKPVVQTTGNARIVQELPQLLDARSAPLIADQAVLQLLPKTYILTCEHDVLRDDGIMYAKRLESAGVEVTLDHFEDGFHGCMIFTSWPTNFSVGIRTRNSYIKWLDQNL", "experiment": "competitive activity-dependent proximity ligation (FP-Bio probe) in live cells; gel-based ABPP in SKOV3", "format": "cell-based"}
{"smiles": "CC(C)c1ccccc1OC(=O)NCCc1ccc2ccccc2c1", "note": "[JW480]", "values": [{"measurement": "IC50", "value": 6, "unit": "nM"}]}
